{"source": "paper PMC6458983", "about": "(Cancer Chemotherapy and Pharmacology, 2019)", "key": {"human AGP": {"system": "human AGP", "conditions": "cited from earlier work"}, "[1]": {"system": "Japanese patients with NSCLC"}, "[2]": {"conditions": "sustained elevation of gastric pH; cited from earlier work"}, "[3]": {"system": "Japanese patients with NSCLC", "assay": "Multivariate logistic regression of ILD with gefitinib exposure and other risk factors", "assay_type": "in vivo", "conditions": "for OR estimate (95% CI) for acute ILD: Age (≥55 vs <55 years): gefitinib-treated patients", "description": "Patients with and without ILD, in whom pharmacokinetic measurements were available, were included in this analysis. […] A multivariate logistic regression model was used in this analysis; the analysis was performed using SAS version 9.3. […] In addition, the interaction of smoking history and normal lung coverage, and the interaction of the severity of pre-existing ILD and normal lung coverage were also studied. In addition, pharmacokinetic exposure parameters were divided into four quartiles (see “Results”) and investigated as risk factors. For association with ILD risk, the mid-1, mid-2, and high-exposure groups were compared with the low-exposure group."}, "[4]": {"conditions": "after a single dose, third-quartile cut-off of predicted exposure"}, "[5]": {"conditions": "Analysis 1 (PK parameter AUC0–24, single dose)"}, "[6]": {"conditions": "Analysis 1, gefitinib exposure after a single dose"}, "[7]": {"conditions": "Analysis 2 (PK parameter AUC0–24,ss)"}, "[8]": {"conditions": "Analysis 2, gefitinib exposure at steady state"}}, "note": "Like-named read-outs stand apart in the source and are kept apart here. Marks after values point to notes of the source that are not given here.", "data": [{"smiles": "COc1cc2ncnc(Nc3ccc(F)c(Cl)c3)c2cc1OCCCN1CCOCC1", "note": "[gefitinib]", "values": [{"measurement": "binding to human AGP", "setting": "human AGP; at 0.05 mg/mL", "value": 83.0, "unit": "%"}, {"measurement": "binding to human AGP", "setting": "human AGP; at 8 mg/mL", "value": 68.5, "unit": "%"}, {"measurement": "Proportion of patients with ILD, by AUC quartile", "setting": "[1]; after a single dose, AUC0–24 Quartile 1", "value": 11.9, "unit": "%"}, {"measurement": "Proportion of patients with ILD, by AUC quartile", "setting": "[1]; after a single dose, AUC0–24 Quartile 2", "value": 8.3, "unit": "%"}, {"measurement": "Proportion of patients with ILD, by AUC quartile", "setting": "[1]; after a single dose, AUC0–24 Quartile 3", "value": 8.3, "unit": "%"}, {"measurement": "Proportion of patients with ILD, by AUC quartile", "setting": "[1]; after a single dose, AUC0–24 Quartile 4", "value": 32.1, "unit": "%"}, {"measurement": "Proportion of patients with ILD, by Cmax quartile", "setting": "[1]; after a single dose, Cmax Quartile 1", "value": 11.9, "unit": "%"}, {"measurement": "Proportion of patients with ILD, by Cmax quartile", "setting": "[1]; after a single dose, Cmax Quartile 2", "value": 8.3, "unit": "%"}, {"measurement": "Proportion of patients with ILD, by Cmax quartile", "setting": "[1]; after a single dose, Cmax Quartile 3", "value": 9.5, "unit": "%"}, {"measurement": "Proportion of patients with ILD, by Cmax quartile", "setting": "[1]; after a single dose, Cmax Quartile 4", "value": 31.0, "unit": "%"}, {"measurement": "AUC0–24 lower than or equal to the third quartile", "setting": "[1]; [4]", "value": "≤ 3855", "unit": "ng·h/mL"}, {"measurement": "Cmax lower than or equal to the third quartile", "setting": "[1]; [4]", "value": "≤ 207", "unit": "ng/mL"}, {"measurement": "Proportion of patients with ILD, by AUC quartile", "setting": "[1]; at steady state, AUC0–24,ss Quartile 1", "value": 5.1, "unit": "%"}, {"measurement": "Proportion of patients with ILD, by AUC quartile", "setting": "[1]; at steady state, AUC0–24,ss Quartile 2", "value": 7.8, "unit": "%"}, {"measurement": "Proportion of patients with ILD, by AUC quartile", "setting": "[1]; at steady state, AUC0–24,ss Quartile 3", "value": 15.4, "unit": "%"}, {"measurement": "Proportion of patients with ILD, by AUC quartile", "setting": "[1]; at steady state, AUC0–24,ss Quartile 4", "value": 14.3, "unit": "%"}, {"measurement": "Proportion of patients with ILD, by Cmax quartile", "setting": "[1]; at steady state, Cmax,ss Quartile 1", "value": 6.4, "unit": "%"}, {"measurement": "Proportion of patients with ILD, by Cmax quartile", "setting": "[1]; at steady state, Cmax,ss Quartile 2", "value": 6.5, "unit": "%"}, {"measurement": "Proportion of patients with ILD, by Cmax quartile", "setting": "[1]; at steady state, Cmax,ss Quartile 3", "value": 17.9, "unit": "%"}, {"measurement": "Proportion of patients with ILD, by Cmax quartile", "setting": "[1]; at steady state, Cmax,ss Quartile 4", "value": 11.7, "unit": "%"}, {"measurement": "decrease of bioavailability", "setting": "[2]", "value": 47, "unit": "%"}, {"measurement": "OR estimate (95% CI) for acute ILD: Duration of NSCLC ≥1 vs <0.5 years", "setting": "[3]; [5]", "value": "0.37 (0.14–0.95)"}, {"measurement": "OR estimate (95% CI) for acute ILD: Interaction of pre-existing IP and normal lung coverage", "setting": "[3]; [5]", "value": "0.37 (0.02–6.82)"}, {"measurement": "OR estimate (95% CI) for acute ILD: Interaction of smoking history and normal lung coverage", "setting": "[3]; [5]", "value": "0.6 (0.09–4.12)"}, {"measurement": "OR estimate (95% CI) for acute ILD: Normal lung coverage (10%–50% vs 60%–100%)", "setting": "[3]; [5]", "value": "3.39 (0.63–18.31)"}, {"measurement": "OR estimate (95% CI) for acute ILD: Pre-existing IP (yes vs no)", "setting": "[3]; [5]", "value": "4.01 (0.37–43.22)"}, {"measurement": "OR estimate (95% CI) for acute ILD: WHO performance status 1 vs 0", "setting": "[3]; [5]", "value": "0.59 (0.2–1.68)"}, {"measurement": "OR estimate (95% CI) for acute ILD: WHO performance status 2–3 vs 0", "setting": "[3]; [5]", "value": "1.75 (0.48–6.33)"}, {"measurement": "OR estimate (95% CI) for acute ILD: Age (≥55 vs <55 years)", "setting": "[3]; [5]", "value": "1.86 (0.5–6.88)"}, {"measurement": "OR estimate (95% CI) for acute ILD: AUC0–24 Quartile 2 vs Quartile 1", "setting": "[3]; [6]", "value": "0.68 (0.2–2.32)"}, {"measurement": "OR estimate (95% CI) for acute ILD: AUC0–24 Quartile 3 vs Quartile 1", "setting": "[3]; [6]", "value": "0.62 (0.18–2.12)"}, {"measurement": "OR estimate (95% CI) for acute ILD: AUC0–24 Quartile 4 vs Quartile 1", "setting": "[3]; [6]", "value": "3.35 (1.14–9.88)"}, {"measurement": "OR estimate (95% CI) for acute ILD: Duration of NSCLC ≥1 vs <0.5 years", "setting": "[3]; [7]", "value": "0.57 (0.19–1.69)"}, {"measurement": "OR estimate (95% CI) for acute ILD: Interaction of pre-existing IP and normal lung coverage", "setting": "[3]; [7]", "value": "0.25 (0.01–6.8)"}, {"measurement": "OR estimate (95% CI) for acute ILD: Interaction of smoking history and normal lung coverage", "setting": "[3]; [7]", "value": "0.14 (0.01–1.52)"}, {"measurement": "OR estimate (95% CI) for acute ILD: Pre-existing IP (yes vs no)", "setting": "[3]; [7]", "value": "4.49 (0.33–60.44)"}, {"measurement": "OR estimate (95% CI) for acute ILD: WHO performance status 1 vs 0", "setting": "[3]; [7]", "value": "0.55 (0.19–1.62)"}, {"measurement": "OR estimate (95% CI) for acute ILD: WHO performance status 2–3 vs 0", "setting": "[3]; [7]", "value": "1.37 (0.35–5.39)"}, {"measurement": "OR estimate (95% CI) for acute ILD: Age (≥55 vs <55 years)", "setting": "[3]; [7]", "value": "1.54 (0.36–6.6)"}, {"measurement": "OR estimate (95% CI) for acute ILD: Normal lung coverage (10%–50% vs 60%–100%)", "setting": "[3]; Analysis 2 (PK parameter AUC0–24,ss), p<0.05", "value": "9.47 (1.14–78.84)*"}, {"measurement": "OR estimate (95% CI) for acute ILD: AUC0–24,ss Quartile 2 vs Quartile 1", "setting": "[3]; [8]", "value": "1.2 (0.27–5.32)"}, {"measurement": "OR estimate (95% CI) for acute ILD: AUC0–24,ss Quartile 3 vs Quartile 1", "setting": "[3]; [8]", "value": "1.71 (0.42–6.94)"}, {"measurement": "OR estimate (95% CI) for acute ILD: AUC0–24,ss Quartile 4 vs Quartile 1", "setting": "[3]; [8]", "value": "2.09 (0.5–8.74)"}]}]}
